This is an account of results in patent publication US11345678B2, “Benzopyrazole compound used as RHO kinase inhibitor” (MEDSHINE DISCOVERY INC., priority 2018, dated 2022).

Assay [1] has as its target ROCK2 (Homo sapiens (Human), UniProt O75116). Briefly: In vitro inhibitory activity against ROCK protein kinase (33P-ATP filter-binding), ROCK2. It counts as biochemical. Conditions: 1 nM ROCK protein kinase, 20 μM Long S6 Kinase substrate peptide. Here is the method:
(§1) 1. In Vitro Evaluation of the Inhibitory Activity Against ROCK Protein Kinase
(§2) Experimental purpose: to detect the inhibitory IC50 value of the compound against ROCK protein kinase.
(§3) Assay buffer solution: 20 mM 4-hydroxyethylpiperazine ethanesulfonic acid (pH 7.5), 10 mM magnesium chloride, 1 mM ethylene glycol-bis-(2-aminoethyl)tetraacetic acid, 0.02% polyethylene glycol monododecyl ether, 0.02 mg/mL bovine serum albumin, 0.1 mM sodium vanadate, 2 mM dithiothreitol, 1% DMSO.
(§4) The freshly prepared buffer solution was added to ROCK protein kinase substrate (Long S6 Kinase substrate peptide), at a concentration of 20 μM, then 1 nM ROCK protein kinase was added thereto and stirred evenly. Echo550 was used to add a series of DMSO dilutions containing the test compound (starting from 10 μM, serially diluted by 3 times), the solution was pre-incubated at room temperature for 20 minutes, then ^33P-ATP (radiation intensity 10 μCi/μL) was added to initiate the reaction, and the reaction was performed at room temperature for two hours. Then the solution was filtered by P81 ion exchange paper (Whatman #3698-915) and washed with 0.75% phosphoric acid. The radiation intensity was determined by Filter-Binding method.
(§5) The protein kinase inhibitory activity of the compound was expressed as the remaining protein kinase activity relative to the blank substrate (simply DMSO). Prism software package (GraphPad Software, San Diego Calif., USA) was used to calculate IC50 value and the curve.

The target of assay [2] is ROCK1 (Homo sapiens (Human), UniProt Q13464). Briefly: In vitro inhibitory activity against ROCK protein kinase (33P-ATP filter-binding), ROCK1. The assay is classed as biochemical. The note with it: 1 nM ROCK protein kinase, 20 μM Long S6 Kinase substrate peptide. Here is the method: as §1, §2, §3, §4, §5
ROCK1, sequence (Q13464 whole entry): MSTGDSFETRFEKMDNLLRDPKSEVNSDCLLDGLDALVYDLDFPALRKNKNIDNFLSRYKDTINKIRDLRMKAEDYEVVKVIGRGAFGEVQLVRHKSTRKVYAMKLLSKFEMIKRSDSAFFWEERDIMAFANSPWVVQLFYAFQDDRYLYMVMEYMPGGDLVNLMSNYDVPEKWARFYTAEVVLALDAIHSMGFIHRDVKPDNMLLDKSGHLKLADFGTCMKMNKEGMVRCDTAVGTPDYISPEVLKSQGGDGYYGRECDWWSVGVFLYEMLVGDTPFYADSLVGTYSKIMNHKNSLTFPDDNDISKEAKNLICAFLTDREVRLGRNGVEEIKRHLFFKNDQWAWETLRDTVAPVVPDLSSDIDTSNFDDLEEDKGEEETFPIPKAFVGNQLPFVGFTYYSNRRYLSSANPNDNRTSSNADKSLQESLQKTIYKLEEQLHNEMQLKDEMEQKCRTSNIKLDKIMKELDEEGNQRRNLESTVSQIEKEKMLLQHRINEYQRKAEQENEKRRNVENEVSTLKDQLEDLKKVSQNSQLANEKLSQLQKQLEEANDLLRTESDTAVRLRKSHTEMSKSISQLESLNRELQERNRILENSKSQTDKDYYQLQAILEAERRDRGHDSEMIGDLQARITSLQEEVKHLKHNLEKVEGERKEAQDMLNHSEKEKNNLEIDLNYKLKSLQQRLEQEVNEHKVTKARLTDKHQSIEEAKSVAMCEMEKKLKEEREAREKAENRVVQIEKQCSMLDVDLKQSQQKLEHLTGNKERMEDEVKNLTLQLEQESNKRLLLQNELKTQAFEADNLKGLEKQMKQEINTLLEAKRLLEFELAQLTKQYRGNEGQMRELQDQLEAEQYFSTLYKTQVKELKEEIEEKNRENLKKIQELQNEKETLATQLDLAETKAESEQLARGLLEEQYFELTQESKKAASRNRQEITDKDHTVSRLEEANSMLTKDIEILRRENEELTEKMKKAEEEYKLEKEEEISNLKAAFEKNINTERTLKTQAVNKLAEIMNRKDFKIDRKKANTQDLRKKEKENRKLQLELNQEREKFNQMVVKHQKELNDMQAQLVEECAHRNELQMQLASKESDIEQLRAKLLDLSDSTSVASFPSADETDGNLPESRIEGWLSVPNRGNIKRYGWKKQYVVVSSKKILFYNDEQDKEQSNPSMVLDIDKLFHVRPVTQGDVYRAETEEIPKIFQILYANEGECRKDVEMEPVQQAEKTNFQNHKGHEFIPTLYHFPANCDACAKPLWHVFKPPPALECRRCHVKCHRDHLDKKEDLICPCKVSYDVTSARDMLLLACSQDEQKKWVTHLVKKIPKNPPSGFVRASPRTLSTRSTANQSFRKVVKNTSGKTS

ROCK2, sequence (O75116 whole entry): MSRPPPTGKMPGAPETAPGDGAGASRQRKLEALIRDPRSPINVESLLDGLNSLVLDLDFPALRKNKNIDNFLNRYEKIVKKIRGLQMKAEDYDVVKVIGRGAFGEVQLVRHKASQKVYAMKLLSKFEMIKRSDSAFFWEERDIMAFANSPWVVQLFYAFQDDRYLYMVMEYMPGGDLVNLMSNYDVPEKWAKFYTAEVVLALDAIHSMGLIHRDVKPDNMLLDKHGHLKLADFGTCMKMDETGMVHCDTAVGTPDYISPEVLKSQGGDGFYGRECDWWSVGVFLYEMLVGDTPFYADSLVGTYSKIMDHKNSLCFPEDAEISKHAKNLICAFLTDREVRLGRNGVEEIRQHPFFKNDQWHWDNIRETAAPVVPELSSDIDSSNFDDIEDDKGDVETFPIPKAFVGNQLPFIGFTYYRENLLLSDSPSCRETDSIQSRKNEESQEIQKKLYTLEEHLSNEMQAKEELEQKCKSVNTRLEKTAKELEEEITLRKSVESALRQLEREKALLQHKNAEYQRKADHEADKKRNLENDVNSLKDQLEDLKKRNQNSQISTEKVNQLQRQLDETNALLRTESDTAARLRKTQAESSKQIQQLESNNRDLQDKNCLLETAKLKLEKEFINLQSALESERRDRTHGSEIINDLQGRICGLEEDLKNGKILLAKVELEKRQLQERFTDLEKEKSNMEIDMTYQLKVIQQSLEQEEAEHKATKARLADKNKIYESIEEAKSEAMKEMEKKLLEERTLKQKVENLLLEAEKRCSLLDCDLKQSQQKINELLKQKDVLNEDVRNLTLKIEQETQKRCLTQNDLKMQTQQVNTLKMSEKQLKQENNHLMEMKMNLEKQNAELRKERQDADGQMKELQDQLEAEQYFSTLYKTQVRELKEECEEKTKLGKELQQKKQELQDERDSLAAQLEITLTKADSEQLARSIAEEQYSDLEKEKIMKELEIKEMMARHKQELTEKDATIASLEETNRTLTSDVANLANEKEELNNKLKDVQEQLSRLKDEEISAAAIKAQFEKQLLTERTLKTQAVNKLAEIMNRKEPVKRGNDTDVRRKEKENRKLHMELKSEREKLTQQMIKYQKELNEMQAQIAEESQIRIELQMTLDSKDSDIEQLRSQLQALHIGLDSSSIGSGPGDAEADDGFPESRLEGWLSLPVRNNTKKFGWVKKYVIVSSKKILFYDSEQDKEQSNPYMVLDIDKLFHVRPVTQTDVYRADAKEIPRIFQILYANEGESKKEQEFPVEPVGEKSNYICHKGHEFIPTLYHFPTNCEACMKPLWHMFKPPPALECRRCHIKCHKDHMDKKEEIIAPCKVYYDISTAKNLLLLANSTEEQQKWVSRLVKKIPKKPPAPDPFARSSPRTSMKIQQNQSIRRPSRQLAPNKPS

As a reminder, the IC50 is the concentration that inhibits the measured activity by half. A higher IC50 goes with weaker potency. For the compound `COc1cccc(C(CCO)NC(=O)c2ccnc(-c3ccc4[nH]ncc4c3)c2)c1` (centres unmarked) [Compound 1], the IC50 in assay [1] worked out at 21 nM; in assay [2], 1640 nM.
For `COc1cccc(C(CCO)NC(=O)c2cccc(-c3ccc4[nH]ncc4c3)c2)c1` (centres unmarked) [Compound 2] the same measures were less than 1 nM and 79 nM.
For `COc1cccc(C(CCO)NC(=O)c2cncc(-c3ccc4[nH]ncc4c3)c2)c1` (centres unmarked) [Compound 3] the same measures were 11 nM and 765 nM.
For `COc1cccc(C(CCO)NC(=O)c2cc(-c3ccc4[nH]ncc4c3)ccn2)c1` (centres unmarked) [Compound 4] the same measures were 6 nM and 288 nM.
As to `COc1cccc(C(CO)NC(=O)c2cccc(-c3ccc4[nH]ncc4c3)c2)c1` (centres unmarked) [Compound 5], the IC50 in assay [1] came to 6 nM; in assay [2] it was 33 nM.
For `O=C(NC(CCO)c1cccc(F)c1)c1cccc(-c2ccc3[nH]ncc3c2)c1` (centres unmarked) [Compound 6] the same measures were 7 nM and 63 nM.
In the case of `COc1cccc(C(CCN)NC(=O)c2cccc(-c3ccc4[nH]ncc4c3)c2)c1` (centres unmarked) [Compound 7], the results for the IC50 in assay [1] and in assay [2] were 4 nM and 24 nM, respectively.
For `COc1cccc(C(CCN(C)C)NC(=O)c2cccc(-c3ccc4[nH]ncc4c3)c2)c1` (centres unmarked) [Compound 8] the same measures were 10 nM and 166 nM.
For the compound `COc1cccc(C(CN)NC(=O)c2cccc(-c3ccc4[nH]ncc4c3)c2)c1` (centres unmarked) [Compound 9], the IC50 was 4 nM in assay [1] and 25 nM in assay [2].
For `COc1cccc(C(CN(C)C)NC(=O)c2cccc(-c3ccc4[nH]ncc4c3)c2)c1` (centres unmarked) [Compound 10] the same measures were 6 nM and 79 nM.
For `COc1cccc(C(CO)NC(=O)c2ccc(F)c(-c3ccc4[nH]ncc4c3)c2)c1` (centres unmarked) [Compound 11] the same measures were 5 nM and 79 nM.
In the case of `COc1cccc(C(CO)NC(=O)c2cc(F)cc(-c3ccc4[nH]ncc4c3)c2)c1` (centres unmarked) [Compound 12], the IC50 is 12 nM in assay [1] and 257 nM in assay [2].
For `O=C(NC(CCO)c1cccc(Cl)c1)c1cccc(-c2ccc3[nH]ncc3c2)c1` (centres unmarked) [Compound 13], the figures for the IC50 in assay [1] and in assay [2] were 16 nM and 139 nM, respectively.
Take `COc1cccc(C(CN2CCCC2)NC(=O)c2cccc(-c3ccc4[nH]ncc4c3)c2)c1` (centres unmarked) [Compound 14]: the IC50 in assay [1] was 8 nM; in assay [2], 103 nM.
For `COc1cccc(C(CO)NC(=O)c2cc(-c3ccc4[nH]ncc4c3)ccc2F)c1` (centres unmarked) [Compound 15] the same measures were 12 nM and 278 nM.
`O=C(NC(CO)c1cc(F)ccc1F)c1cccc(-c2ccc3[nH]ncc3c2)c1` (centres unmarked) [Compound 16]: the values for the IC50 in assay [1] and in assay [2] were 26 nM and 259 nM, respectively.
In assay [1], `O=C(NC(CO)c1cc(F)cc(F)c1)c1cccc(-c2ccc3[nH]ncc3c2)c1` (centres unmarked) [Compound 17] yielded an IC50 of 23 nM.
Still for that read-out and setting: under `O=C(NC(CO)c1ccc(F)c(F)c1)c1cccc(-c2ccc3[nH]ncc3c2)c1` (centres unmarked) [Compound 18] stands 29 nM.
Take `O=C(NC(CO)c1cccc(F)c1F)c1cccc(-c2ccc3[nH]ncc3c2)c1` (centres unmarked) [Compound 19]: the results for the IC50 in assay [1] and in assay [2] were 35 nM and 735 nM, respectively.
For `O=C(NC(CCO)c1ccccc1F)c1cccc(-c2ccc3[nH]ncc3c2)c1` (centres unmarked) [Compound 20] the same measures were 35 nM and 304 nM.
In assay [1], `COc1cccc(CNC(=O)c2cccc(-c3ccc4[nH]ncc4c3)c2)c1` [Compound 21] registered an IC50 of 3 nM.
Turning to `O=C(NC(CO)c1cccc(F)c1)c1cccc(-c2ccc3[nH]ncc3c2)c1` (centres unmarked) [Compound 22], the IC50 in assay [1] is 6 nM; in assay [2], 52 nM.
For `NCC(NC(=O)c1cccc(-c2ccc3[nH]ncc3c2)c1)c1cccc(F)c1` (centres unmarked) [Compound 23] the same measures were 7 nM and 29 nM.
With `O=C(NC(CN1CCCC1)c1cccc(F)c1)c1cccc(-c2ccc3[nH]ncc3c2)c1` (centres unmarked) [Compound 24], the IC50 in assay [1] is 14 nM; in assay [2], 126 nM.
For `COc1cccc(C(CO)NC(=O)c2cccc(-c3ccc4[nH]nc(N)c4c3)c2)c1` (centres unmarked) [Compound 27] the same measures were 30 nM and 407 nM.
For `COc1cccc(C(CN)NC(=O)c2cccc(-c3ccc4[nH]nc(F)c4c3)c2)c1` (centres unmarked) [Compound 28] the same measures were 13 nM and 43 nM.
With `COc1cccc(C(CN)NC(=O)c2cccc(-c3ccc4[nH]nc(N)c4c3)c2)c1` (centres unmarked) [Compound 29], the values for the IC50 in assay [1] and in assay [2] were 7 nM and 65 nM, respectively.
For `COc1cccc(C(CN)NC(=O)c2cccc(-c3ccc4[nH]nc(C)c4c3)c2)c1` (centres unmarked) [Compound 30] the same measures were 3 nM and 43 nM.
`COCCC(NC(=O)c1cccc(-c2ccc3[nH]ncc3c2)c1)c1cccc(OC)c1` (centres unmarked) [Compound 31]: the IC50 in assay [1] was found to be 20 nM; in assay [2], 223 nM.
Regarding `COc1cccc(C(CN2CCNCC2)NC(=O)c2cccc(-c3ccc4[nH]ncc4c3)c2)c1` (centres unmarked) [Compound 32], the IC50 in assay [1] stood at 23 nM; in assay [2], 343 nM.
On to `COc1cccc(C(CN)NC(=O)c2cc(-c3ccc4[nH]nc(C)c4c3)cc3c2CNC3)c1` (centres unmarked) [Compound 33], for which the IC50 in assay [1] is 16 nM.
As for `COc1cccc(C(CN)NC(=O)c2cc(-c3ccc4[nH]nc(C)c4c3)cc3cccnc23)c1` (centres unmarked) [Compound 34], the IC50 in assay [1] worked out at 17 nM; in assay [2], 1430 nM.
For the compound `COc1cccc(C(CN2CCCC2)NC(=O)c2cccc(-c3ccc4[nH]nc(C)c4c3)c2)c1` (centres unmarked) [Compound 37], the IC50 in assay [1] came out at 7 nM; in assay [2], 290 nM.
As to `COc1cccc(C(CNC(C)C)NC(=O)c2cccc(-c3ccc4[nH]nc(C)c4c3)c2)c1` (centres unmarked) [Compound 38], the values for the IC50 in assay [1] and in assay [2] were 14 nM and 75 nM, respectively.
For `COc1cccc(C(CN)NC(=O)c2cc(CN3CCCC3)cc(-c3ccc4[nH]nc(C)c4c3)c2)c1` (centres unmarked) [Compound 39] the same measures were 15 nM and 429 nM.
With `NCC(NC(=O)c1cccc(-c2ccc3[nH]nc(F)c3c2)c1)c1cccc(F)c1` (centres unmarked) [Compound 41], in assay [1], the IC50 was 21 nM.
`Cc1n[nH]c2ccc(-c3cccc(C(=O)NC(CN)c4cccc(F)c4)c3)cc12` (centres unmarked) [Compound 42] returned an IC50 in assay [1] of 4 nM.
Take `Cc1n[nH]c2ccc(-c3cccc(C(=O)NC(CN)c4cccc(Cl)c4)c3)cc12` (centres unmarked) [Compound 43]: the results for the IC50 in assay [1] and in assay [2] were 6 nM and 153 nM, respectively.
As to `COc1cccc(C2(NC(=O)c3cccc(-c4ccc5[nH]nc(C)c5c4)c3)CCNC2)c1` (centres unmarked) [Compound 44], the figures for the IC50 in assay [1] and in assay [2] were 4 nM and 106 nM, respectively.
For `COc1cccc(C2(NC(=O)c3cccc(-c4ccc5[nH]nc(F)c5c4)c3)CCNC2)c1` (centres unmarked) [Compound 45] the same measures were 19 nM and 1270 nM.
For `COc1cccc(C2(NC(=O)c3cc(-c4ccc5[nH]nc(C)c5c4)ccn3)CCNC2)c1` (centres unmarked) [Compound 46] the same measures were 8 nM and 267 nM.
For `COc1cccc(C(CN)NC(=O)c2cc(-c3ccc4[nH]nc(C)c4c3)ccc2OC(F)F)c1` (centres unmarked) [Compound 47] the same measures were 12 nM and 67 nM.
As to `COc1cccc(C(CN)NC(=O)c2cc(-c3ccc4[nH]nc(F)c4c3)ccc2OC(F)F)c1` (centres unmarked) [Compound 48], the IC50 in assay [1] was determined as 9 nM; in assay [2], 84 nM.
For the compound `COc1cccc(C(CN)NC(=O)c2cc(-c3ccc4[nH]nc(C)c4c3)ccc2OC)c1` (centres unmarked) [Compound 50], the half-inhibitory concentration (IC50) in assay [1] came out at 5 nM; in assay [2], 56 nM.
For `COc1cccc(C(CN)NC(=O)c2cc(-c3ccc4[nH]nc(F)c4c3)ccc2OC)c1` (centres unmarked) [Compound 51] the same measures were 7 nM and 50 nM.
As to `COc1cc(C(=O)NC(CN)c2cccc(OC)c2)cc(-c2ccc3[nH]nc(C)c3c2)c1` (centres unmarked) [Compound 52], the IC50 stood at 10 nM in assay [1] and 182 nM in assay [2].
For `COc1cc(C(=O)NC(CN)c2cccc(OC)c2)cc(-c2ccc3[nH]nc(F)c3c2)c1` (centres unmarked) [Compound 53] the same measures were 20 nM and 1090 nM.
On to `COc1cccc(C(CN)NC(=O)c2cccc(-c3ccc4[nH]nc(F)c4c3)c2)c1` (centres unmarked) [Compound 54], for which the IC50 in assay [1] is 21 nM; in assay [2], 180 nM.
On to `COc1cccc(C(CN2CCNCC2)NC(=O)c2cccc(-c3ccc4[nH]nc(F)c4c3)c2)c1` (centres unmarked) [Compound 55], for which the results for the IC50 in assay [1] and in assay [2] were 51 nM and 4120 nM, respectively.
On to `COc1cccc(C(CN2CCNCC2)NC(=O)c2cccc(-c3ccc4[nH]nc(C)c4c3)c2)c1` (centres unmarked) [Compound 56], for which the IC50 in assay [1] was 44 nM; in assay [2], 2300 nM.
Compound `Cc1n[nH]c2ccc(-c3cccc(C(=O)NC(CN)c4cccc(OC5CC5)c4)c3)cc12` (centres unmarked) [Compound 63] had an IC50 in assay [1] of 35 nM.
The same measure, in the same setting: the same measure for `COc1cccc(C(CN)NC(=O)c2cccc(-c3ccc4[nH]nc(C5CC5)c4c3)c2)c1` (centres unmarked) [Compound 68]: 8 nM.
The same measure, in the same setting: under `COc1cccc(C(CN)NC(=O)c2cc(-c3ccc4[nH]nc(C)c4c3)ncn2)c1` (centres unmarked) [Compound 69] stands 12 nM; under `COc1cccc(C(CNC(C)C)NC(=O)c2cc(-c3ccc4[nH]nc(C)c4c3)ccn2)c1` (centres unmarked) [Compound 70], 24 nM.
